The test system of one data set is T1, AbLac.
T1 construct: gene lcc1
The conditions noted are these: 0% acetone pre-incubation; pH 3.0 citrate-phosphate; 30 °C.

A further data set concerns T2, TvLac.
T2 construct: gene LCC1
The conditions noted are these: 0% acetone pre-incubation; pH 3.0 citrate-phosphate; 30 °C.

Substrate in the data set “purified protein”: CCn1c(=NN=c2sc3cc(S(=O)(=O)O)ccc3n2CC)sc2cc(S(=O)(=O)O)ccc21
Kind of data set: purified protein. The format is biochemical, Cerrena. The conditions noted are these: 0% acetone pre-incubation, pH 3.0 citrate-phosphate, 30 °C, 1.25–800 μM ABTS.

A word on the Km: it is the substrate concentration at which the rate is half of its maximum. Broadly, the kcat/Km is the turnover number divided by the Michaelis constant.

In the case of `CCn1c(=NN=c2sc3cc(S(=O)(=O)O)ccc3n2CC)sc2cc(S(=O)(=O)O)ccc21` [ABTS, 2,2′-azino-bis(3-ethylbenzothiazoline-6-sulphonic acid)], the Km in the data set with AbLac came to 212 ± 19.5 µM; in the data set with TvLac, 29 ± 2.1 µM.

B1: DLac (Cerrena) (protein)
chain: AVGPVTDIHIVNKDIAPDGFSRPSVLAGGTFPGPLITGQKGDNFKLNVVDDLTDASMLKSTSIHWHGFFQKGTNWADGPAFVNQCPISTGNSFLYNFQVPDQAGTYWYHSHLSTQYCDGLRGAFVVYDPTDPHKALYDVDDESTVITLADWYHTLARQIVGVAIADTTLINGLGRNTNGPADAALAVINVEAGKRYRLRLVSISCDPNYVFSIDNHDFNIIEVDGVNSKPLNVDSIQIFAGQRYSAVLNANQPVGNYWVRANPNLGTTGFTGGINSAILRYKGAPVAEPTTTQTTSTKPLQEPNLRPLVSMPVPGSATPGGVDVVHNLILGFSAGKFTINGAAFTPPSVPVLLQILSGTTNAQDLLPSGSVITLPIGKTIELTLAAGVLGGPHPFHLHGHNFHVVRSAGQTTPNYVDPIVRDVVNTGGTGDNVTIRFTTDNPGPWFLHCHIDWHLEAGFAVVFAEGVNQTNAANPTPADWNNLCNIYNALADGDK
notes: source not restated here; 494 C atoms superimposed in the crystal structures
For the molecule B1, in “purified protein”, the Km is 24 ± 3.9 µM and the kcat/Km was 1.47e+09 ± 3.1e+08 M⁻¹ s⁻¹.

The values above are taken from article PMC6611822, “Enhancement of laccase activity by pre-incubation with organic solvents” (Scientific Reports, 2019).
